Measurements published in patent US12310975B2, “Modulators of BCL6 proteolysis and associated methods of use” (Arvinas Operations, Inc., priority 2019, dated 2025).

Tests used:
BCL6 [1] = biological target: T1, BCL6 (Homo sapiens (Human), UniProt P41182); assay: Immunofluorescence high content imaging of BCL6 degradation in T47D cells; format: cell-based
Outline: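 Following a 3-day incubation with serially diluted bifunctional compounds (final top 0.1 or 1 μM), T47D cells were PFA-fixed and immunostained for BCL6. Nuclear BCL6 signal was captured on a high-content imager.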

BCL6 [2] = biological target: T1, BCL6; assay: BCL6 TR-FRET assay (BCL6-Avitag-Biotin / BCoR-Cy5 peptide); format: binding; conditions: for IC50: read-out: IC50
Outline: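 After 30 min room-temperature preincubation of compound titrations with 2 nM biotinylated BCL6-Avitag, 100 nM Cy5-labelled BCoR peptide plus 2 nM Eu-streptavidin were added and TR-FRET read 2 h later. HEPES pH 7.5/125 mM NaCl buffer with Triton X, glutathione (or DTT) and BSA.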

Row | Compound | IC50 (BCL6 [1]) | Dmax (BCL6 [1]; T47D) | EC50 (BCL6 [2]) | IC50 (BCL6 [2]) | Dmax (BCL6 [1]; T47D cells) | IC50 (BCL6 [1]; T47D cells)
1 | CNC(=O)COc1cc2cc(Nc3nc(N4CCC(OC5CCN(c6ccc7c(c6)C(=O)N(C6CCC(=O)NC6=O)C7=O)CC5)CC4)ncc3Cl)ccc2n(C)c1=O (stereo not drawn) [compound 221, 2-((6-((5-chloro-2-(4-((1-(2-(2,6-dioxopiperidin-3-yl)-1,3-dioxoisoindolin-5-yl)piperidin-4-yl)oxy)piperidin-1-yl)pyrimidin-4-yl)amino)-1-methyl-2-oxo-1,2-dihydroquinolin-3-yl)oxy)-N-methylacetamide] | < 10 nM | 50 to 70% | > 100 nM | – | – | –
2 | CN1C(=O)CCc2cc(Nc3nc(N4CCN(CC5CCN(c6cccc7c6C(=O)N(C6CCC(=O)NC6=O)C7=O)CC5)CC4)ncc3Cl)ccc21 (stereo not drawn) [compound 378, 4-{4-[(4-{5-chloro-4-[(1-methyl-2-oxo-1,2,3,4-tetrahydroquinolin-6-yl)amino]pyrimidin-2-yl}piperazin-1-yl)methyl]piperidin-1-yl}-2-(2,6-dioxopiperidin-3-yl)-2,3-dihydro-1H-isoindole-1,3-dione] | – | – | > 100 nM | – | < 50% | ≥ 100 nM
3 | CNC(=O)COc1cc2cc(Nc3nc(N4CC5(CCC(OC6CCN(c7ccc8c(c7)C(=O)N(C7CCC(=O)NC7=O)C8=O)CC6)CC5)C4)ncc3Cl)ccc2n(C(C)C)c1=O (stereo not drawn) [compound 444, 2-{[6-({5-chloro-2-[7-({1-[2-(2,6-dioxopiperidin-3-yl)-1,3-dioxo-2,3-dihydro-1H-isoindol-5-yl]piperidin-4-yl}oxy)-2-azaspiro[3.5]nonan-2-yl]pyrimidin-4-yl}amino)-2-oxo-1-(propan-2-yl)-1,2-dihydroquinolin-3-yl]oxy}-N-methylacetamide] | – | 50 to 70% | – | < 0.01 µM | – | –
4 | CNC(=O)COc1cc2cc(Nc3nc(N4CCCN(CC5CCN(c6ccc7c(c6)C(=O)N(C6CCC(=O)NC6=O)C7=O)CC5)CC4)ncc3Cl)ccc2n(C)c1=O (stereo not drawn) [compound 215, 2-((6-((5-chloro-2-(4-((1-(2-(2,6-dioxopiperidin-3-yl)-1,3-dioxoisoindolin-5-yl)piperidin-4-yl)methyl)-1,4-diazepan-1-yl)pyrimidin-4-yl)amino)-1-methyl-2-oxo-1,2-dihydroquinolin-3-yl)oxy)-N-methylacetamide] | 10 to 50 nM | < 50% | 50 to 100 nM | – | – | –
5 | CNC(=O)COc1cc2cc(Nc3nc(N4CCO[C@@H](COc5ccc6c(c5)C(=O)N(C5CCC(=O)NC5=O)C6=O)C4)ncc3Cl)ccc2n(C)c1=O (stereo partly drawn) [compound 222, 2-((6-((5-chloro-2-((2R)-2-(((2-(2,6-dioxopiperidin-3-yl)-1,3-dioxoisoindolin-5-yl)oxy)methyl)morpholino)pyrimidin-4-yl)amino)-1-methyl-2-oxo-1,2-dihydroquinolin-3-yl)oxy)-N-methylacetamide] | 50 to 100 nM | < 50% | > 100 nM | – | – | –
6 | CC(=O)[C@H](C)Oc1cc2cc(Nc3nc(N4CCC(CN5CCN(c6ccc7c(c6)C(=O)N([C@H]6CCC(=O)NC6=O)C7=O)CC5)CC4)ncc3Cl)ccc2n(C)c1=O [compound 217, 5-(4-((1-(5-chloro-4-((1-methyl-2-oxo-3-(((S)-3-oxobutan-2-yl)oxy)-1,2-dihydroquinolin-6-yl)amino)pyrimidin-2-yl)piperidin-4-yl)methyl)piperazin-1-yl)-2-((S)-2,6-dioxopiperidin-3-yl)isoindoline-1,3-dione] | ≥ 100 nM | < 50% | > 100 nM | – | – | –
7 | CNC(=O)COc1cc2cc(Nc3nc(N4CCN(CCN5CCN(c6ccc7c(c6)C(=O)N(C6CCC(=O)NC6=O)C7=O)CC5)CC4)ncc3Cl)ccc2n(C)c1=O (stereo not drawn) [compound 229, 2-((6-((5-chloro-2-(4-(2-(4-(2-(2,6-dioxopiperidin-3-yl)-1,3-dioxoisoindolin-5-yl)piperazin-1-yl)ethyl)piperazin-1-yl)pyrimidin-4-yl)amino)-1-methyl-2-oxo-1,2-dihydroquinolin-3-yl)oxy)-N-methylacetamide] | 10 to 50 nM | 50 to 70% | 10 to 50 nM | – | – | –
8 | CNC(=O)COc1cc2cc(Nc3nc(N4CCOC(CN5CCN(c6cccc7c6C(=O)N(C6CCC(=O)NC6=O)C7=O)CC5)C4)ncc3Cl)ccc2n(C)c1=O (stereo not drawn) [compound 271, 2-{[6-({5-chloro-2-[2-({4-[2-(2,6-dioxopiperidin-3-yl)-1,3-dioxo-2,3-dihydro-1H-isoindol-4-yl]piperazin-1-yl}methyl)morpholin-4-yl]pyrimidin-4-yl}amino)-1-methyl-2-oxo-1,2-dihydroquinolin-3-yl]oxy}-N-methylacetamide] | 50 to 100 nM | 50 to 70% | 10 to 50 nM | – | – | –

Next, values leading:

Row | IC50 (BCL6 [1]) | Dmax (BCL6 [1]; T47D) | EC50 (BCL6 [2]) | IC50 (BCL6 [2]) | Dmax (BCL6 [1]; T47D cells) | IC50 (BCL6 [1]; T47D cells) | Compound
9 | – | ≥ 70% | – | < 0.01 µM | – | – | CNC(=O)COc1cc2cc(Nc3nc(N4CCC5(CCN(CC6CCN(c7cccc8c7C(=O)N(C7CCC(=O)NC7=O)C8=O)CC6)CC5)C4)ncc3Cl)ccc2n(C(C)C)c1=O (stereo not drawn) [compound 513, 2-{[6-({5-chloro-2-[8-({1-[2-(2,6-dioxopiperidin-3-yl)-1,3-dioxo-2,3-dihydro-1H-isoindol-4-yl]piperidin-4-yl}methyl)-2,8-diazaspiro[4.5]decan-2-yl]pyrimidin-4-yl}amino)-2-oxo-1-(propan-2-yl)-1,2-dihydroquinolin-3-yl]oxy}-N-methylacetamide]
10 | – | 50 to 70% | – | < 0.01 µM | – | – | CNC(=O)COc1cc2cc(Nc3nc(N4CCN(CC5CCC6(CC5)CN(c5c(F)ccc7c5C(=O)N(C5CCC(=O)NC5=O)C7=O)C6)CC4)ncc3Cl)ccc2n(C(C)C)c1=O (stereo not drawn) [compound 539, 2-{[6-({5-chloro-2-[4-({2-[2-(2,6-dioxopiperidin-3-yl)-5-fluoro-1,3-dioxo-2,3-dihydro-1H-isoindol-4-yl]-2-azaspiro[3.5]nonan-7-yl}methyl)piperazin-1-yl]pyrimidin-4-yl}amino)-2-oxo-1-(propan-2-yl)-1,2-dihydroquinolin-3-yl]oxy}-N-methylacetamide]
11 | – | < 50% | – | 0.01 to 0.05 µM | – | – | CNC(=O)COc1cc2cc(Nc3nc(N4CCC(O[C@H]5C[C@@H](COc6cccc7c6C(=O)N(C6CCC(=O)NC6=O)C7=O)N(C)C5)CC4)ncc3Cl)ccc2n(C(C)C)c1=O (stereo partly drawn) [compound 476, 2-[(6-{[5-chloro-2-(4-{[(3S,5S)-5-({[2-(2,6-dioxopiperidin-3-yl)-1,3-dioxo-2,3-dihydro-1H-isoindol-4-yl]oxy}methyl)-1-methylpyrrolidin-3-yl]oxy}piperidin-1-yl)pyrimidin-4-yl]amino}-2-oxo-1-(propan-2-yl)-1,2-dihydroquinolin-3-yl)oxy]-N-methylacetamide]
12 | – | < 50% | – | 0.01 to 0.05 µM | – | – | Cn1c(=O)n(CCC(C)(C)O)c2cc(Nc3nc(N4CCC(OC5CC6(CCN(c7cccc8c7C(=O)N(C7CCC(=O)NC7=O)C8=O)CC6)C5)CC4)ncc3Cl)ccc21 (stereo not drawn) [compound 493, 4-(2-{[1-(5-chloro-4-{[3-(3-hydroxy-3-methylbutyl)-1-methyl-2-oxo-2,3-dihydro-1H-1,3-benzodiazol-5-yl]amino}pyrimidin-2-yl)piperidin-4-yl]oxy}-7-azaspiro[3.5]nonan-7-yl)-2-(2,6-dioxopiperidin-3-yl)-2,3-dihydro-1H-isoindole-1,3-dione]
13 | – | ≥ 70% | – | ≥ 0.1 µM | – | – | CNC(=O)COc1cc2cc(Nc3nc(N4CCOCC4)ncc3Cl)ccc2n(CCOc2ccc3c(c2)C(=O)N(C2CCC(=O)NC2=O)C3=O)c1=O (stereo not drawn) [compound 475, 2-[(6-{[5-chloro-2-(morpholin-4-yl)pyrimidin-4-yl]amino}-1-(2-{[2-(2,6-dioxopiperidin-3-yl)-1,3-dioxo-2,3-dihydro-1H-isoindol-5-yl]oxy}ethyl)-2-oxo-1,2-dihydroquinolin-3-yl)oxy]-N-methylacetamide]
14 | – | ≥ 70% | – | < 0.01 µM | – | – | CNC(=O)COc1cc2cc(Nc3nc(N4CCC5(CN(CC6CCN(c7cccc8c7C(=O)N(C7CCC(=O)NC7=O)C8=O)CC6)C5)C4)ncc3Cl)ccc2n(C(C)C)c1=O (stereo not drawn) [compound 519, 2-{[6-({5-chloro-2-[2-({1-[2-(2,6-dioxopiperidin-3-yl)-1,3-dioxo-2,3-dihydro-1H-isoindol-4-yl]piperidin-4-yl}methyl)-2,6-diazaspiro[3.4]octan-6-yl]pyrimidin-4-yl}amino)-2-oxo-1-(propan-2-yl)-1,2-dihydroquinolin-3-yl]oxy}-N-methylacetamide]
15 | – | 50 to 70% | – | < 0.01 µM | – | – | CNC(=O)COc1cc2cc(Nc3nc(N4CCN(CC5CC6(C5)CN(c5cccc7c5C(=O)N(C5CCC(=O)NC5=O)C7=O)C6)CC4)ncc3Cl)ccc2n(C(C)C)c1=O (stereo not drawn) [compound 529, 2-{[6-({5-chloro-2-[4-({2-[2-(2,6-dioxopiperidin-3-yl)-1,3-dioxo-2,3-dihydro-1H-isoindol-4-yl]-2-azaspiro[3.3]heptan-6-yl}methyl)piperazin-1-yl]pyrimidin-4-yl}amino)-2-oxo-1-(propan-2-yl)-1,2-dihydroquinolin-3-yl]oxy}-N-methylacetamide]
16 | – | 50 to 70% | – | < 0.01 µM | – | – | CNC(=O)COc1cc2cc(Nc3nc(N4CCC(OC5CN(C6CCN(c7cccc8c7C(=O)N(C7CCC(=O)NC7=O)C8=O)CC6)C5)CC4)ncc3Cl)ccc2n(C(C)C)c1=O (stereo not drawn) [compound 525, 2-({6-[(5-chloro-2-{4-[(1-{1-[2-(2,6-dioxopiperidin-3-yl)-1,3-dioxo-2,3-dihydro-1H-isoindol-4-yl]piperidin-4-yl}azetidin-3-yl)oxy]piperidin-1-yl}pyrimidin-4-yl)amino]-2-oxo-1-(propan-2-yl)-1,2-dihydroquinolin-3-yl}oxy)-N-methylacetamide]
